Reference: US10954269B2, “Anti-inflammatory tripeptides” (Dr. August Wolff Gmbh & Co. KG Arzneimittel, priority 2013, dated 2021)

Key:
primary human T-cells = experiment: Cytokine secretion on protein level in activated primary human T-cells (13-plex FACS / Luminex, supernatant); type: cell-based; conditions: for IL-1 cytokine concentration / IL-2 cytokine concentration / IL-4 cytokine concentration / IL-5 cytokine concentration / IL-6 cytokine concentration / IL-9 cytokine concentration / IL-10 cytokine concentration / IL-12p70 cytokine concentration / IL-13 cytokine concentration / IL-17 cytokine concentration / IL-22 cytokine concentration / TNF-α cytokine concentration / INF-α cytokine concentration: substance 10^−9M
Protocol: (§1) Primary T-cells were isolated from peripheral blood from healthy volunteers and from secondary lymphatic organs from naïve C57BL/6 mice, respectively. The cells were stimulated with phorbol-12-myristate-13-acetate (PMA)/Ionomycin and interferon-gamma (IFN-γ), respectively, for 48 h to activate the cells. The activated cells release pro-inflammatory cytokines. In parallel a human (HaCaT) keratinocyte cell line was activated with PMA/Ionomycin and IFN-γ, respectively, too. […] At the same time release of anti-inflammatory IL-10 was inhibited. Two days after addition of PMA/Ionomycin and IFN-γ, respectively, the induction of IL-1 secretion was determined in the supernatant for proving that the cells are activated. […] The anti-inflammatory properties of the tripeptides were determined 48 h and 72 h following stimulation. A 13-plex-system based FACS analysis was used for showing the reduced secretion of pro-inflammatory cytokines in the supernatant. Data for IL-1, IL-2, IL-6, IL-12p70 IL-17, IFN-γ and TNF-α are considered to be most relevant. Thus, analysis of the anti-inflammatory properties of the tripeptides is preferably based on the results obtained for these analytes. […] Using this method the gene expression of pro-inflammatory markers like IL-6, IL-17, IFN-γ and TNF-α was determined.
(§2) In a third experiment murine and human T cells and HaCaT cells were stimulated with PMA/Ionomycin and treated with Examples 14, 15, 16 and 17 at 10^−7 M, 10^−9 M and 10^−11 M. Cytokine concentrations (IFN-γ, IL-17 and IL-10 for T cells and IFN-γ for HaCat) were assessed in the supernatants using the Luminex technology. Expression of genes coding for Il-1β, IL-6 and TNF-α was determined. […] Moreover, concentrations of pro-inflammatory cytokines IFN-γ and IL-17 was reduced in the supernatants whereas the concentration of anti-inflammatory cytokine IL-10 was increased. […]
(§3) For the biological assay two human cell lines of different origin were chosen to allow for translation of the results obtained. A HaCaT cell is a cell type belonging to an immortal human keratinocyte line used in scientific research. Its use in research allows for the characterization of human keratinocyte using a model that is reproducible and representing a human epithelial cell line. In contrast human T-lymphocytes (T-cells) are a type of lymphocyte (itself a type of white blood cell) that play a central role in cell-mediated inflammation/immunity.

[1] = tested on: human keratinocyte cell line (HaCaT); experiment: Cytokine secretion on protein level in activated human keratinocyte cell line HaCaT (13-plex FACS / Luminex, supernatant); type: cell-based; conditions: for IL-1 cytokine concentration / IL-2 cytokine concentration / IL-4 cytokine concentration / IL-5 cytokine concentration / IL-6 cytokine concentration / IL-9 cytokine concentration / IL-10 cytokine concentration / IL-12p70 cytokine concentration / IL-13 cytokine concentration / IL-17 cytokine concentration / IL-22 cytokine concentration / TNF-α cytokine concentration / IFN-γ cytokine concentration: substance 10^−9M
Protocol: as §1, §2, §3

primary murine T-cells = experiment: Cytokine secretion on protein level in activated primary murine T-cells (13-plex FACS / Luminex, supernatant); type: cell-based, C57BL/6 mice; conditions: substance 10^−9M
Protocol: as §1
In a third experiment murine and human T cells and HaCaT cells were stimulated with PMA/Ionomycin and treated with Examples 14, 15, 16 and 17 at 10^−7 M, 10^−9 M and 10^−11 M. Cytokine concentrations (IFN-γ, IL-17 and IL-10 for T cells and IFN-γ for HaCat) were assessed in the supernatants using the Luminex technology. Expression of genes coding for Il-1β, IL-6 and TNF-α was determined. […] Moreover, concentrations of pro-inflammatory cytokines IFN-γ and IL-17 was reduced in the supernatants whereas the concentration of anti-inflammatory cytokine IL-10 was increased.
The anti-inflammatory and immunomodulatory effects of selected examples of the present invention were compared with common immunosuppressants. Thus, cells activated with PMA/Ionomycin and IFN-γ, respectively, were stimulated with MMF or dexamethasone. Following stimulation the secretion of pro-inflammatory cytokines was analyzed on protein and gene level (Table 9 and FIGS. 4-6).

[2] = primary human T-cells stimulated with IFN-γ
[3] = primary human T-cells stimulated with PBS
[4] = primary human T-cells stimulated with PMA/Ionomycin
[5] = HaCaT stimulated with PMA/Ionomycin
[6] = primary murine T-cells stimulated with IFN-γ
[7] = primary murine T-cells stimulated with PBS
[8] = primary murine T-cells stimulated with PMA/Ionomycin

Substance: N^α,N^α-dimethyl-(L)-Nle-(D)-Pro-N^α-methyl-(L)-Thr-OH [Example 6]
- secretion / expression of pro-inflammatory cytokines (supernatant) (primary human T-cells; activated primary human T-cells): decreased expression
- IL-1 cytokine concentration (primary human T-cells; [2]): 0 pg/mL
- IL-2 cytokine concentration (primary human T-cells; [2]): 0 pg/mL
- IL-4 cytokine concentration (primary human T-cells; [2]): 76.04 pg/mL
- IL-5 cytokine concentration (primary human T-cells; [2]): 0 pg/mL
- IL-6 cytokine concentration (primary human T-cells; [2]): 45.83 pg/mL
- IL-9 cytokine concentration (primary human T-cells; [2]): 0 pg/mL
- IL-10 cytokine concentration (primary human T-cells; [2]): 51.86 pg/mL
- IL-12p70 cytokine concentration (primary human T-cells; [2]): 0 pg/mL
- IL-13 cytokine concentration (primary human T-cells; [2]): 46.95 pg/mL
- IL-17 cytokine concentration (primary human T-cells; [2]): 36.76 pg/mL
- IL-22 cytokine concentration (primary human T-cells; [2]): 0 pg/mL
- TNF-α cytokine concentration (primary human T-cells; [2]): 17.44 pg/mL
- IL-1 cytokine concentration (primary human T-cells; [3]): 107.12 pg/mL
- IL-2 cytokine concentration (primary human T-cells; [3]): 114.93 pg/mL
- IL-5 cytokine concentration (primary human T-cells; [3]): 12.74 pg/mL
- IL-6 cytokine concentration (primary human T-cells; [3]): 105.53 pg/mL
- IL-9 cytokine concentration (primary human T-cells; [3]): 8.15 pg/mL
- IL-10 cytokine concentration (primary human T-cells; [3]): 92.62 pg/mL
- IL-12p70 cytokine concentration (primary human T-cells; [3]): 0 pg/mL
- IL-13 cytokine concentration (primary human T-cells; [3]): 0 pg/mL
- IL-17 cytokine concentration (primary human T-cells; [3]): 113.52 pg/mL
- IL-22 cytokine concentration (primary human T-cells; [3]): 0 pg/mL
- INF-α cytokine concentration (primary human T-cells; [3]): 0 pg/mL
- TNF-α cytokine concentration (primary human T-cells; [3]): 28.11 pg/mL
- IL-1 cytokine concentration (primary human T-cells; [4]): 533.57 pg/mL
- IL-2 cytokine concentration (primary human T-cells; [4]): 2005.81 pg/mL
- IL-4 cytokine concentration (primary human T-cells; [4]): 87.24 pg/mL
- IL-5 cytokine concentration (primary human T-cells; [4]): 312.5 pg/mL
- IL-6 cytokine concentration (primary human T-cells; [4]): 1194.58 pg/mL
- IL-9 cytokine concentration (primary human T-cells; [4]): 238.28 pg/mL
- IL-10 cytokine concentration (primary human T-cells; [4]): 999.32 pg/mL
- IL-12p70 cytokine concentration (primary human T-cells; [4]): 0 pg/mL
- IL-13 cytokine concentration (primary human T-cells; [4]): 1050.19 pg/mL
- IL-17 cytokine concentration (primary human T-cells; [4]): 1388.88 pg/mL
- IL-22 cytokine concentration (primary human T-cells; [4]): 0 pg/mL
- INF-α cytokine concentration (primary human T-cells; [4]): 7597.87 pg/mL
- TNF-α cytokine concentration (primary human T-cells; [4]): 2638.52 pg/mL
- IL-1 cytokine concentration ([1]; HaCaT stimulated with IFN-γ): 0 pg/mL
- IL-2 cytokine concentration ([1]; HaCaT stimulated with IFN-γ): 17.47 pg/mL
- IL-4 cytokine concentration ([1]; HaCaT stimulated with IFN-γ): 0 pg/mL
- IL-5 cytokine concentration ([1]; HaCaT stimulated with IFN-γ): 0 pg/mL
- IL-6 cytokine concentration ([1]; HaCaT stimulated with IFN-γ): 202.37 pg/mL
- IL-9 cytokine concentration ([1]; HaCaT stimulated with IFN-γ): 0 pg/mL
- IL-10 cytokine concentration ([1]; HaCaT stimulated with IFN-γ): 0 pg/mL
- IL-12p70 cytokine concentration ([1]; HaCaT stimulated with IFN-γ): 0 pg/mL
- IL-13 cytokine concentration ([1]; HaCaT stimulated with IFN-γ): 1872.11 pg/mL
- IL-17 cytokine concentration ([1]; HaCaT stimulated with IFN-γ): 0 pg/mL
- IL-22 cytokine concentration ([1]; HaCaT stimulated with IFN-γ): 0 pg/mL
- TNF-α cytokine concentration ([1]; HaCaT stimulated with IFN-γ): 0 pg/mL
- IFN-γ cytokine concentration ([1]; HaCaT stimulated with PBS): 0 pg/mL
- IL-1 cytokine concentration ([1]; HaCaT stimulated with PBS): 25.45 pg/mL
- IL-2 cytokine concentration ([1]; HaCaT stimulated with PBS): 0 pg/mL
- IL-4 cytokine concentration ([1]; HaCaT stimulated with PBS): 91.99 pg/mL
- IL-5 cytokine concentration ([1]; HaCaT stimulated with PBS): 0 pg/mL
- IL-6 cytokine concentration ([1]; HaCaT stimulated with PBS): 52.48 pg/mL
- IL-9 cytokine concentration ([1]; HaCaT stimulated with PBS): 0 pg/mL
- IL-10 cytokine concentration ([1]; HaCaT stimulated with PBS): 57.95 pg/mL
- IL-12p70 cytokine concentration ([1]; HaCaT stimulated with PBS): 0 pg/mL
- IL-13 cytokine concentration ([1]; HaCaT stimulated with PBS): 0 pg/mL
- IL-17 cytokine concentration ([1]; HaCaT stimulated with PBS): 26.72 pg/mL
- IL-22 cytokine concentration ([1]; HaCaT stimulated with PBS): 0 pg/mL
- TNF-α cytokine concentration ([1]; HaCaT stimulated with PBS): 8.21 pg/mL
- IFN-γ cytokine concentration [1, 5]: 0 pg/mL
- IL-1 cytokine concentration [1, 5]: 62.07 pg/mL
- IL-2 cytokine concentration [1, 5]: 16.53 pg/mL
- IL-4 cytokine concentration [1, 5]: 0 pg/mL
- IL-5 cytokine concentration [1, 5]: 0 pg/mL
- IL-6 cytokine concentration [1, 5]: 248.33 pg/mL
- IL-9 cytokine concentration [1, 5]: 3.71 pg/mL
- IL-10 cytokine concentration [1, 5]: 64.03 pg/mL
- IL-12p70 cytokine concentration [1, 5]: 0 pg/mL
- IL-13 cytokine concentration [1, 5]: 0 pg/mL
- IL-17 cytokine concentration [1, 5]: 21.52 pg/mL
- IL-22 cytokine concentration [1, 5]: 0 pg/mL
- TNF-α cytokine concentration [1, 5]: 5.37 pg/mL
- secretion / expression of pro-inflammatory cytokines (supernatant) ([1]; activated human keratinocytes): decreased expression
- IL-1 cytokine concentration (primary murine T-cells; [6]): 95.15 pg/mL
- IL-2 cytokine concentration (primary murine T-cells; [6]): 181.25 pg/mL
- IL-4 cytokine concentration (primary murine T-cells; [6]): 156.84 pg/mL
- IL-5 cytokine concentration (primary murine T-cells; [6]): 517.47 pg/mL
- IL-6 cytokine concentration (primary murine T-cells; [6]): 223.98 pg/mL
- IL-10 cytokine concentration (primary murine T-cells; [6]): 1782.7 pg/mL
- IL-13 cytokine concentration (primary murine T-cells; [6]): 0 pg/mL
- IL-17 cytokine concentration (primary murine T-cells; [6]): 189.88 pg/mL
- IL-21 cytokine concentration (primary murine T-cells; [6]): 251.06 pg/mL
- IL-22 cytokine concentration (primary murine T-cells; [6]): 73.27 pg/mL
- IL-27 cytokine concentration (primary murine T-cells; [6]): 0 pg/mL
- TNF-α cytokine concentration (primary murine T-cells; [6]): 40.87 pg/mL
- IFN-γ cytokine concentration (primary murine T-cells; [7]): 546.71 pg/mL
- IL-1 cytokine concentration (primary murine T-cells; [7]): 106.27 pg/mL
- IL-2 cytokine concentration (primary murine T-cells; [7]): 204.71 pg/mL
- IL-4 cytokine concentration (primary murine T-cells; [7]): 39.23 pg/mL
- IL-5 cytokine concentration (primary murine T-cells; [7]): 407.29 pg/mL
- IL-6 cytokine concentration (primary murine T-cells; [7]): 170.46 pg/mL
- IL-10 cytokine concentration (primary murine T-cells; [7]): 1391.3 pg/mL
- IL-13 cytokine concentration (primary murine T-cells; [7]): 0 pg/mL
- IL-17 cytokine concentration (primary murine T-cells; [7]): 0 pg/mL
- IL-21 cytokine concentration (primary murine T-cells; [7]): 0 pg/mL
- IL-22 cytokine concentration (primary murine T-cells; [7]): 16.55 pg/mL
- IL-27 cytokine concentration (primary murine T-cells; [7]): 108.06 pg/mL
- TNF-α cytokine concentration (primary murine T-cells; [7]): 0 pg/mL
- IFN-γ cytokine concentration (primary murine T-cells; [8]): 8164.35 pg/mL
- IL-1 cytokine concentration (primary murine T-cells; [8]): 486.85 pg/mL
- IL-2 cytokine concentration (primary murine T-cells; [8]): 218.69 pg/mL
- IL-4 cytokine concentration (primary murine T-cells; [8]): 164.69 pg/mL
- IL-5 cytokine concentration (primary murine T-cells; [8]): 380.37 pg/mL
- IL-6 cytokine concentration (primary murine T-cells; [8]): 237.95 pg/mL
- IL-10 cytokine concentration (primary murine T-cells; [8]): 988.64 pg/mL
- IL-13 cytokine concentration (primary murine T-cells; [8]): 0 pg/mL
- IL-17 cytokine concentration (primary murine T-cells; [8]): 200.32 pg/mL
- IL-21 cytokine concentration (primary murine T-cells; [8]): 470.65 pg/mL
- IL-22 cytokine concentration (primary murine T-cells; [8]): 85.67 pg/mL
- IL-27 cytokine concentration (primary murine T-cells; [8]): 95.51 pg/mL
- TNF-α cytokine concentration (primary murine T-cells; [8]): 72.81 pg/mL
